Measured values: EPA's ToxRefDB 2

Tests used:
[1] = system: rat; settings: Combined chronic toxicity/carcinogenicity, fischer, Dermal, Topical, dose end: 2 year, group: systemic
[2] = system: mouse; settings: Subchronic oral toxicity in rodents, b6c3f1, Dermal, Topical, dose end: 14 week, group: systemic
[3] = system: rat; settings: Subchronic oral toxicity in rodents, fischer, Dermal, Topical, dose end: 14 week, group: systemic
[4] = system: mouse; settings: Carcinogenicity; b6c3f1; Dermal; Topical; dose end: 2 year; group: systemic; systemic / pathology microscopic / skin / hyperplasia
[5] = system: rat; settings: Subchronic oral toxicity in rodents, fischer, Gavage/Intubation, dose end: 14 week, group: systemic
[6] = system: mouse; settings: Carcinogenicity, b6c3f1, Oral, Gavage/Intubation, dose end: 105 week, group: systemic
[7] = system: mouse; settings: Subchronic oral toxicity in rodents, b6c3f1, Gavage/Intubation, dose end: 14 week, group: systemic
[8] = system: rat; settings: Carcinogenicity, fischer, Oral, Gavage/Intubation, dose end: 104 week, group: systemic
[9] = system: rat; settings: Prenatal developmental toxicity study, sprague dawley, Oral, Gavage/Intubation, dose end: 15 GD
[10] = system: dog; settings: Subchronic oral toxicity in nonrodent, beagle, Feed, dose end: 13 week, group: systemic
[11] = system: rat; settings: Prenatal developmental toxicity study, sprague dawley, Oral, Gavage/Intubation, dose end: 15 GD; remark: listed apart in the source
[12] = system: mouse; settings: Subchronic oral toxicity in rodents, b6c3f1, Feed, dose end: 90 day, group: systemic
[13] = system: rat; settings: Developmental neurotoxicity study; wistar; Oral; Gavage/Intubation; dose end: 90 PND; group: cannot be grouped; systemic / in life observation / clinical signs / poor maternal care + systemic / in life observation / clinical signs / grip strength + …
[14] = system: rabbit; settings: Prenatal developmental toxicity study, new zealand white, Oral, Gavage/Intubation, dose end: 19 GD
[15] = system: dog; settings: Chronic toxicity, beagle, Oral, Feed, dose end: 52 week, group: systemic
[16] = system: rat; settings: Subchronic oral toxicity in rodents, fischer, Feed, dose end: 90 day, group: systemic, systemic / hematology / hematocrit (hct) / hematocrit (hct) + systemic / hematology / hemoglobin (hgb) / hemoglobin (hgb) + systemic / …
[17] = system: rat; settings: Prenatal developmental toxicity study, sprague dawley, Oral, Gavage/Intubation, dose end: 15 GD; remark: listed apart in the source
[18] = system: mouse; settings: Carcinogenicity, cd1, Oral, Feed, dose end: 18 month, group: systemic
[19] = systemic / pathology microscopic / skin / hyperplasia
[20] = systemic / in life observation / clinical signs / skin discoloration + systemic / organ weight / liver / absolute + systemic / organ weight…
[21] = systemic / organ weight / kidney / relative to body weight
[22] = systemic / organ weight / kidney / relative to body weight + systemic / clinical chemistry / alanine aminotransferase (alt/sgpt) / alanine …
[23] = systemic / pathology microscopic / kidney / glomerulonephropathy + systemic / pathology microscopic / liver / [other] + systemic / pathology…
[24] = systemic / pathology microscopic / liver / clear cell focus + systemic / pathology microscopic / nose / degeneration + systemic / pathology …
[25] = systemic / organ weight / liver / absolute
[26] = systemic / organ weight / liver / absolute + systemic / organ weight / liver / relative to body weight
[27] = systemic / pathology microscopic / liver / basophilic focus + systemic / pathology microscopic / liver / fatty change + systemic / pathology…
[28] = group: developmental, developmental / developmental malformation / bone / incomplete ossification + developmental / developmental malformation / bone / …
[29] = group: maternal, systemic / organ weight / spleen / relative to brain weight + systemic / pathology microscopic / spleen / hematopoietic cell proliferation
[30] = group: maternal, systemic / organ weight / spleen / relative to brain weight + systemic / pathology microscopic / spleen / hematopoietic cell proliferation…
[31] = systemic / clinical chemistry / alkaline phosphatase (alp/alk) / alkaline phosphatase (alp/alk) + systemic / hematology / hematocrit (hct…
[32] = group: developmental, developmental / developmental malformation / bone / ossification sites + systemic / in life observation / body weight / fetal weight
[33] = group: developmental, developmental / developmental malformation / bone / ossification sites + systemic / in life observation / body weight / fetal weight + …
[34] = systemic / hematology / erythrocyte (rbc) count differential / erythrocyte (rbc) + systemic / hematology / hematocrit (hct) / hematocrit (…
[35] = group: developmental, systemic / in life observation / body weight / fetal weight
[36] = group: developmental, systemic / in life observation / body weight / fetal weight + developmental / developmental malformation / bone / fused + developmental / …
[37] = group: maternal, reproductive / reproductive performance / aborted / aborted + reproductive / reproductive performance / resorptions / resorptions + systemic…
[38] = systemic / hematology / microcytosis / microcytosis + systemic / clinical chemistry / albumin / albumin + systemic / clinical chemistry / …
[39] = group: maternal, reproductive / reproductive performance / postimplantation loss / postimplantation loss + reproductive / reproductive performance / …
[40] = systemic / pathology microscopic / adrenal gland / amyloid deposition + systemic / pathology microscopic / kidney / amyloid deposition + …

With `Cc1ccc(S(=O)(=O)[O-])cc1C.[Na+]` [Sodium xylenesulfonate] the LEL [1, 19] was 60 mg/kg/day, the LOAEL [1, 19] was 120 mg/kg/day and the NEL [1, 19] was < 60 mg/kg/day. The NOAEL ([1]; systemic / pathology microscopic / skin / hyperplasia + systemic / in life observation / clinical signs / [other]) was 60 mg/kg/day, the LEL [2, 19] was 170 mg/kg/day and the LOAEL [2, 19] was 1300 mg/kg/day. It also gave an NEL [2, 19] of 60 mg/kg/day, an NOAEL ([2]; systemic / pathology microscopic / skin / hyperplasia + systemic / in life observation / body weight / body weight gain) of 440 mg/kg/day and an NEL ([3]; systemic / in life observation / clinical signs / skin discoloration) of 800 mg/kg/day. The LOAEL [3, 20] was > 500 mg/kg/day, the NOAEL [3, 20] was ≥ 500 mg/kg/day and the LEL [4] was 364 mg/kg/day. For the same compound, the LOAEL [4] was 364 mg/kg/day, the NEL [4] was 182 mg/kg/day and the NOAEL [4] was 182 mg/kg/day.

With `CC(C)=C1CC[C@@H](C)CC1=O` [R-(+)-Pulegone] the LEL [5, 21] was 9.38 mg/kg/day, the NEL [5, 21] was < 9.38 mg/kg/day and the LOAEL [5, 22] was > 150 mg/kg/day. The NOAEL [5, 22] was ≥ 150 mg/kg/day, the LOAEL [6, 23] was 75 mg/kg/day and the NOAEL [6, 23] was 37.5 mg/kg/day. For the same compound, the LEL [6, 24] was 37.5 mg/kg/day, the NEL [6, 24] was < 37.5 mg/kg/day and the LEL [7, 25] was 18.8 mg/kg/day. For the same compound, the LOAEL [7, 26] was > 150 mg/kg/day, the NEL [7, 26] was 9.38 mg/kg/day and the NOAEL [7, 26] was ≥ 150 mg/kg/day. For the same compound, the LOAEL ([8]; systemic / pathology microscopic / kidney / glomerulonephropathy + systemic / pathology microscopic / liver / basophilic focus + systemic / …) was 37.5 mg/kg/day, the LEL [8, 27] was 18.8 mg/kg/day and the NEL [8, 27] was < 18.8 mg/kg/day.

`Cc1nn(-c2cc(NS(C)(=O)=O)c(Cl)cc2Cl)c(=O)n1C(F)F` [Sulfentrazone] was tested, and the LEL [9, 28] was 25 mg/kg/day, the LOAEL [9, 28] was 25 mg/kg/day and the NEL [9, 28] was 10 mg/kg/day. The NOAEL [9, 28] was 10 mg/kg/day, the LOAEL [9, 29] was 50 mg/kg/day and the LEL [9, 30] was 50 mg/kg/day. For the same compound, the NEL [9, 30] was 25 mg/kg/day, the NOAEL [9, 30] was 25 mg/kg/day and the LOAEL [10, 31] was 57 mg/kg/day. For the same compound, the NEL [10, 31] was 10 mg/kg/day, the NOAEL [10, 31] was 28 mg/kg/day and the LEL [10, 25] was 28 mg/kg/day. It also gave an LEL [11, 32] of 25 mg/kg/day, an LOAEL [11, 32] of 25 mg/kg/day and an NEL [11, 33] of 10 mg/kg/day. It also gave an NOAEL [11, 33] of 10 mg/kg/day, an LOAEL [11, 29] of 50 mg/kg/day and an LEL [11, 30] of 50 mg/kg/day. The NEL [11, 30] was 25 mg/kg/day, the NOAEL [11, 30] was 25 mg/kg/day and the LOAEL [12, 34] was 108 mg/kg/day. The NEL [12, 34] was 17.8 mg/kg/day, the NOAEL [12, 34] was 60 mg/kg/day and the LEL ([12]; systemic / hematology / hematocrit (hct) / hematocrit (hct)) was 60 mg/kg/day. The LEL [13] was 25 mg/kg/day, the LOAEL [13] was > 50 mg/kg/day and the NEL [13] was < 25 mg/kg/day. The NOAEL [13] was ≥ 50 mg/kg/day, the LOAEL [14, 35] was 375 mg/kg/day and the LEL ([14]; group: developmental, systemic / in life observation / body weight / fetal weight + developmental / developmental malformation / bone / fused) was 250 mg/kg/day. It also gave an NEL [14, 36] of 100 mg/kg/day, an NOAEL [14, 36] of 250 mg/kg/day and an LOAEL [14, 37] of 375 mg/kg/day. The NEL [14, 37] was 100 mg/kg/day, the NOAEL [14, 37] was 250 mg/kg/day and the LEL ([14]; group: maternal, reproductive / reproductive performance / resorptions / resorptions + systemic / in life observation / body weight / body weight gain + …) was 250 mg/kg/day. For the same compound, the LOAEL ([15]; systemic / hematology / microcytosis / microcytosis) was 61.2 mg/kg/day, the NEL [15, 38] was 9.9 mg/kg/day and the NOAEL [15, 38] was 24.9 mg/kg/day. It also gave an LEL ([15]; systemic / pathology microscopic / gallbladder / pigmentation) of 24.9 mg/kg/day, an LOAEL [16] of 65.8 mg/kg/day and an NOAEL [16] of 19.9 mg/kg/day. The LEL [17, 35] was 50 mg/kg/day, the LOAEL [17, 35] was > 50 mg/kg/day and the NEL [17, 35] was 25 mg/kg/day. For the same compound, the NOAEL [17, 35] was ≥ 50 mg/kg/day, the LEL [17, 39] was 50 mg/kg/day and the LOAEL [17, 39] was > 50 mg/kg/day. For the same compound, the NEL [17, 39] was 25 mg/kg/day, the NOAEL [17, 39] was ≥ 50 mg/kg/day and the LOAEL ([18]; systemic / hematology / hematocrit (hct) / hematocrit (hct) + systemic / hematology / hemoglobin (hgb) / hemoglobin (hgb)) was 160 mg/kg/day. The NOAEL ([18]; systemic / hematology / hematocrit (hct) / hematocrit (hct) + systemic / hematology / hemoglobin (hgb) / hemoglobin (hgb) + systemic / …) was 93.9 mg/kg/day, the LEL [18, 40] was 46.6 mg/kg/day and the NEL [18, 40] was < 46.6 mg/kg/day.
